Results taken from patent publication US20190275033A1 (Boehringer Ingelheim International GmbH, priority 2016, published 2019).
Entries after “also recorded” stand apart in the source; their conditions may differ.

Legend:
[1] = tested on: Bleomycin-induced lung fibrosis in mice; assay: Bleomycin-induced lung fibrosis in mice; type: in vivo
[2] = tested on: Silica-induced lung fibrosis in mice; assay: Silica-induced lung fibrosis in mice; type: in vivo
[3] = tested on: Bleomycin-induced lung fibrosis in rats; assay: Bleomycin-induced lung fibrosis in rats; type: in vivo
[4] = tested on: Skin and lung fibrosis in transgenic Fra-2 mice; assay: Skin and lung fibrosis in transgenic Fra-2 mice (genetic model of SSc-ILD); type: in vivo
From the text: Data are shown in Huang et al., Ann. Rheum. Dis. […] Clin. Pract. Rheumatol. 2006; 1:134-44.

[5] = tested on: Rheumatoid arthritis and lung fibrosis in SKG mice; assay: Rheumatoid arthritis and lung fibrosis in zymosan-stimulated SKG mice (RA-ILD model)
From the text: Whether this inflammation is helpful to resolve the fibrosis or detrimental remains open.
INTRODUCTION: Rheumatoid arthritis preferentially affects women and approximately […] of patients have lung abnormalities and involvement. From this group approximately 20% will develop rheumatoid arthritis-associated interstitial lung disease (RA-ILD).
RATIONALE: SKG mice, genetically prone to develop autoimmune arthritis, also develop a pulmonary interstitial pneumonia that resembles human cellular and fibrotic non-specific interstitial pneumonia.
Inflammation in the lungs was measured by BAL (bronchoalveolar lavage) cellularity and in enzymatically-digested lungs. Arthritis of joints and digits was scored weekly.

[6] = tested on: collagen-induced arthritis (CIA); assay: Mouse model of collagen-induced arthritis (CIA); type: in vivo; details: treatment started 13 days after induction, continued for 5 weeks
[7] = tested on: primary human lung fibroblasts from IPF patients; assay: Fibroblast to myofibroblast transformation of human lung fibroblasts; type: cell-based
From the text: Nintedanib also attenuated the transformation of lung fibroblasts to myofibroblasts. Fibroblast proliferation, migration and transformation are fundamental processes in the common final path of several diseases resulting in lung fibrosis such as IPF but also SSc-ILD and RA-ILD.

[8] = tested on: animal models of lung fibrosis; assay: Three animal models of lung fibrosis; type: in vivo
[9] = tested on: dermal fibroblasts from patients with SSc; assay: Dermal fibroblasts from patients with SSc; type: cell-based, human
[10] = tested on: animal models of SSc and SSc-ILD; assay: Four animal models of SSc and SSc-ILD; type: in vivo
human lung fibroblast = assay: Human lung fibroblast contraction; type: cell-based; details: clinically relevant concentrations
patients with IPF = details: cited from earlier work
[11] = cited from earlier work
[12] = tested on: vascular endothelial growth factor receptors (VEGFRs); details: preclinical studies; cited from earlier work
[13] = tested on: platelet-derived growth factor receptors (PDGFRs); details: preclinical studies; cited from earlier work
[14] = tested on: fibroblast growth factor receptors (FGFRs); details: preclinical studies; cited from earlier work
[15] = preclinical studies; cited from earlier work
PDGFR-α = target: T1, PDGFR-α (Homo sapiens, UniProt P16234); details: normal human lung fibroblasts in vitro; cited from earlier work
T1 construct: endogenous in cells; host or cells: normal human lung fibroblasts
T1 sequence (P16234 24-1089): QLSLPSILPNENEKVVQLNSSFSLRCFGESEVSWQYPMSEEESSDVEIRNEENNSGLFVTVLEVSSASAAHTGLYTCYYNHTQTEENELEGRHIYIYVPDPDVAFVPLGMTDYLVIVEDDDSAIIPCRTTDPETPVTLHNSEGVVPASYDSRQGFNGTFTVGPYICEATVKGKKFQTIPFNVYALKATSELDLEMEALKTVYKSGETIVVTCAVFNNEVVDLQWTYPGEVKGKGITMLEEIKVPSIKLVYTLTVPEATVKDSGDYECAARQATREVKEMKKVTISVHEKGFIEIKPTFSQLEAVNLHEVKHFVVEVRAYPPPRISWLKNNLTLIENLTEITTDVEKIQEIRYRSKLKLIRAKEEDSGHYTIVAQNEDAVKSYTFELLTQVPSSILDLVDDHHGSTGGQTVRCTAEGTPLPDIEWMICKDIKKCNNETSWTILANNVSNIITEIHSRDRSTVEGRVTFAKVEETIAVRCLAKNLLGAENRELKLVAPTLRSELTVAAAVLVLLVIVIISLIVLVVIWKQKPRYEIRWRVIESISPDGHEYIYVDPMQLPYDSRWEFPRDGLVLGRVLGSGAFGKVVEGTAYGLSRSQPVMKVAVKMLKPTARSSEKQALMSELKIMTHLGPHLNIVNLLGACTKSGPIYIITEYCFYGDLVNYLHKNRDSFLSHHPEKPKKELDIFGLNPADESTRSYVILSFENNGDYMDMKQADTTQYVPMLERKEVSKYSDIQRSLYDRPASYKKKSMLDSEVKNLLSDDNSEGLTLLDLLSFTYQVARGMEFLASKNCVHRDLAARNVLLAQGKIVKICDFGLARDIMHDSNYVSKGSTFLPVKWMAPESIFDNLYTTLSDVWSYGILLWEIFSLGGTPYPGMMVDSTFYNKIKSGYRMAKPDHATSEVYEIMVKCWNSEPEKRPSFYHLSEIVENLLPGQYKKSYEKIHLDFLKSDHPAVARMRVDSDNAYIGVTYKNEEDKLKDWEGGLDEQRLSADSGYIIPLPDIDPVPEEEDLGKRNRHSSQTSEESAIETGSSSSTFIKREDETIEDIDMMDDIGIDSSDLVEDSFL

PDGFR-β = target: T2, PDGFR-β (Homo sapiens, UniProt P09619); details: normal human lung fibroblasts in vitro; cited from earlier work
T2 construct: endogenous in cells; host or cells: normal human lung fibroblasts
T2 sequence (P09619 33-1106): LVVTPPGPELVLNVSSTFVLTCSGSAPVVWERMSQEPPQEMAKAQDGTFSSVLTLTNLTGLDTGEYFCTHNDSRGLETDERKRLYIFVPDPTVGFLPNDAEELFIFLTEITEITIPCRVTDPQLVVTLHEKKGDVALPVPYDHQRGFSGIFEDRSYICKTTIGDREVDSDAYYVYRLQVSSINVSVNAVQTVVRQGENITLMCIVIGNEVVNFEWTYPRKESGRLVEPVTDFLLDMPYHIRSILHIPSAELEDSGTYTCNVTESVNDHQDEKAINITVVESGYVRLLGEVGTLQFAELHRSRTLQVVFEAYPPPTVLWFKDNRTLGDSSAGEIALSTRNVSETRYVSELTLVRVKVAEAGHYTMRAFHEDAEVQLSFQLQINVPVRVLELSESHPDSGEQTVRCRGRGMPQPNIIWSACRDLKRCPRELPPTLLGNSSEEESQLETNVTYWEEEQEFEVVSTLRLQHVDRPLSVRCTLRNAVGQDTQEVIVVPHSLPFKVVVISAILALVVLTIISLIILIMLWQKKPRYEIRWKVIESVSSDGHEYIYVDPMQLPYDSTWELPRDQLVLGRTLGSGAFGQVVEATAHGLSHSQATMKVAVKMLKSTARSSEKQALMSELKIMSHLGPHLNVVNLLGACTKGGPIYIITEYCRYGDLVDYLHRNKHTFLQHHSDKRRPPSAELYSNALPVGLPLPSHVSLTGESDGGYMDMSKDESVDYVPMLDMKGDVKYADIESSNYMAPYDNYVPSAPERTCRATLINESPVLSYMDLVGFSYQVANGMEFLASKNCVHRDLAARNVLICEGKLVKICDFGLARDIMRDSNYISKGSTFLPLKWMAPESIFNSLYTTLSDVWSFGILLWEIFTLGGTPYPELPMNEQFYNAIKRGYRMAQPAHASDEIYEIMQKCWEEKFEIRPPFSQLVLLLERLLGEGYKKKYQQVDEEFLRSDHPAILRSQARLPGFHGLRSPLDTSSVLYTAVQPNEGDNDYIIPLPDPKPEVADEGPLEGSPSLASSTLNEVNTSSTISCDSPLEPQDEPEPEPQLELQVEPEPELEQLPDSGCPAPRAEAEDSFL

human lung fibroblasts = details: cited from earlier work
[16] = tested on: lung fibroblasts from patients with IPF; details: cited from earlier work
[17] = tested on: primary human lung fibroblasts from IPF patients; details: cited from earlier work
mouse models of IPF = details: in vivo; cited from earlier work
[18] = tested on: bleomycin-induced skin fibrosis in mice; details: therapeutic nintedanib treatment; cited from earlier work
IPF patients = details: cited from earlier work
[19] = early treatment, developing lung disease
[20] = early treatment, from week 5 after zymosan
[21] = late treatment, week 16, vs saline
[22] = preventive or therapeutic dosing regimen
[23] = human lung fibroblasts from patients with IPF and control donors
[24] = lung fibroblasts from patients with IPF

SMILES: COC(=O)c1ccc2c(c1)NC(=O)/C2=C(\Nc1ccc(N(C)C(=O)CN2CCN(C)CC2)cc1)c1ccccc1 [nintedanib, 3-Z-[1-(4-(N-((4-methyl-piperazin-1-yl)-methylcarbonyl)-N-methyl-amino)-anilino)-1-phenyl-methylene]-6-methoxycarbonyl-2-indolinone]
- BALF lymphocytes ([1]; preventive treatment): cytes↓
- IL-1β ([1]; preventive treatment): IL-1β↓
- Lung fibrosis ([1]; preventive treatment): fibrosis↓
- Lung inflammation ([1]; preventive treatment): mation↓
- TIMP-1 ([1]; preventive treatment): TIMP-1↓
- BALF lymphocytes ([1]; therapeutic treatment): cytes↓
- IL-1β ([1]; therapeutic treatment): IL-1β↓
- Lung collgen ([1]; therapeutic treatment): collgen↓
- Lung fibrosis ([1]; therapeutic treatment): fibrosis↓
- Lung inflammation ([1]; therapeutic treatment): mation↓
- TIMP-1 ([1]; therapeutic treatment): TIMP-1↓
- BALF neutrophils + lymphocytes ([2]; preventive treatment): cytes↓
- IL-1β ([2]; preventive treatment): IL-1β↓
- KC ([2]; preventive treatment): KC↓
- Lung collagen ([2]; preventive treatment): collagen↓
- Lung fibrosis ([2]; preventive treatment): fibrosis↓
- Lung inflammation ([2]; preventive treatment): mation↓
- TIMP-1 ([2]; preventive treatment): TIMP-1↓
- BALF neutrophils + lymphocytes ([2]; therapeutic treatment): cytes↓
- IL-1β ([2]; therapeutic treatment): IL-1β↓
- IL-6 ([2]; therapeutic treatment): IL-6↓
- KC ([2]; therapeutic treatment): KC↓
- Lung collagen ([2]; therapeutic treatment): collagen↓
- Lung fibrosis ([2]; therapeutic treatment): fibrosis↓
- Lung inflammation ([2]; therapeutic treatment): mation↓
- TIMP-1 ([2]; therapeutic treatment): TIMP-1↓
- Lung fibrosis (Ashcroft score) ([3]; preventive treatment): score)↓
- Lung fibrosis (Ashcroft score) ([3]; therapeutic treatment): score)↓
- Lung fibrosis ([4]; Fra2+/− mice): normalises
- lung vascular remodelling ([4]; Fra2+/− mice): normalises
- skin fibrosis ([4]; Fra2+/− mice): normalises
- Dermal thickness ([4]; therapeutic treatment): thickness↓
- ECM ([4]; therapeutic treatment): ECM↓
- Hydroxiproline ([4]; therapeutic treatment): Hydroxiproline↓
- MVEC apoptosis ([4]; therapeutic treatment): apoptosis↑
- Occluded vessels ([4]; therapeutic treatment): vessels↓
- Skin and lung myofibroblast count ([4]; therapeutic treatment): count↓
- VSMC ([4]; therapeutic treatment): VSMC↓
- Vessel wall thickness ([4]; therapeutic treatment): thickness↓
- inflammation in the lung ([5]; SKG mice treated with zymosan): slight but selective inflammation
- Arthritic score ([5]; early treatment): score↓
- Lung tissue B220 + B-cells ([5]; early treatment): B-cells↑
- Lung tissue CD103 + Dendritic cells ([5]; early treatment): cells↑
- Lung tissue Monocytes ([5]; early treatment): Monocytes↓
- Lung tissue Neutrophils ([5]; early treatment): Neutrophils↑
- static lung compliance ([5]; early treatment): ance↑
- lymphocytes in the BAL [5, 19]: trend towards increased
- neutrophils in the BAL [5, 19]: trend towards increased
- total number of alveolar macrophages ([5]; early treatment, developing lung disease, vs saline): no significant difference
- lung collagen deposition (hydroxyproline) [5, 20]: no effect; also recorded: not significantly altered
- static lung compliance (lung function) [5, 20]: improved lung function; also recorded: increase in static lung compliance
- arthritis score / joint swelling ([5]; early treatment, from week 5 after zymosan (week 5-11), 60 mg/kg daily gavage, vs saline, 60 mg/kg): attenuated arthritis pathology; also recorded: significant reduction in their development of arthritis; also recorded: significantly reduced; also recorded: reversal of joint swelling
- lung collagen (hydroxyproline) / pulmonary fibrosis ([5]; late (therapeutic) treatment for six weeks, established arthritis): reduction of collagen deposition; also recorded: significant reduction of lung collagen; also recorded: significantly reduces; also recorded: significant decrease
- BAL lymphocytes and neutrophils ([5]; late treatment): neutrophils↑
- Lung hydroxiproline ([5]; late treatment): hydroxiproline↓
- Lung tissue inflammatory macrophages ([5]; late treatment): macrophages↑
- static lung compliance ([5]; late treatment, established lung disease): no significant difference
- arthritis score / joint swelling ([5]; late treatment, from week 10 after zymosan (week 10-16), established disease, vs saline): reduction of the arthritis score if the score was normalized to the last measurement before the start of the nintedanib treatment; also recorded: not altered; also recorded: slightly increased the resolution of joint swelling
- alveolar macrophages (BAL) ([5]; late treatment, vs saline): no significant difference
- number of lymphocytes (BAL) ([5]; late treatment, vs saline): small but significant elevation
- number of neutrophils (BAL) ([5]; late treatment, vs saline): small but significant elevation
- total number of BAL cells ([5]; late treatment, vs saline): no significant difference
- percent survival [5, 21]: no significant change
- weight [5, 21]: no significant change
- Arthritic score ([5]; late treatment, if the data is normalised to the last scoring before the nintedanib treatment starts): score↓*
- B220+ B-cells ([5]; lungs, six weeks of nintedanib): small but significant increase
- CD4+ T-cells ([5]; lungs, six weeks of nintedanib): small but significant increase
- macrophage numbers ([5]; lungs, six weeks of nintedanib): no changes
- lung dendritic cells ([5]; nintedanib beginning at week 5): significant increase
- lung neutrophils ([5]; nintedanib beginning at week 5): significant increase
- increase in lung neutrophils ([5]; nintedanib beginning at week 11): not at week 11
- arthritis score [6]: no attenuating effect
- transformation of lung fibroblasts to myofibroblasts [7]: attenuated
- accumulation of lymphocytes in the bronchoalveolar lavage fluid (BALF) ([8]; in vivo): attenuated
- chemokine CXCL1/KC in lung tissue ([8]; in vivo): reduced
- collagen content in lung tissue ([8]; in vivo): reduced
- interleukin (IL)-10 in lung tissue ([8]; in vivo): reduced
- mRNA expression of procollagen 1 ([8]; in vivo): blocked
- mRNA expression of transforming growth factor (TGF)-β1 ([8]; in vivo): blocked
- tissue inhibitor of metalloproteinases (TIMP)-1 in lung tissue ([8]; in vivo): reduced
- histology score of fibrosis in lung sections [8, 22]: reduced
- histology score of granuloma formation in lung sections [8, 22]: reduced
- histology score of inflammation in lung sections [8, 22]: reduced
- expression of extracellular matrix markers [9]: reduced
- migration [9]: inhibited
- proliferation [9]: inhibited
- transformation to myofibroblast [9]: attenuated
- number of vascular smooth muscle cells ([10]; an animal model of SSc): reducing
- occluded pulmonary vessels ([10]; an animal model of SSc): reducing
- pulmonary vascular remodelling ([10]; an animal model of SSc): effectively attenuated
- Lung fibrosis ([10]; in vivo): effectively attenuated
- dermal microvascular endothelial cell apoptosis ([10]; in vivo): reduced
- dermal thickening ([10]; in vivo): reduced
- extracellular matrix deposition in skin and lung ([10]; in vivo): reduced
- myofibroblast accumulation in skin and lung ([10]; in vivo): attenuated
- skin fibrosis ([10]; in vivo): effectively attenuated
- human lung fibroblast contraction (human lung fibroblast): inhibits
- efficacy versus placebo (patients with IPF; INPULSIS and TOMORROW trials, 150 mg twice daily): positive results
- reduction of the annual rate of decline in FVC (mL/year) (patients with IPF; both INPULSIS trials, 150 mg twice daily versus placebo): approximately 50%
- elimination via biliary/faecal excretion ([11]; human, in vivo): > 90%
- exposure ([11]; patients with hepatic impairment (Child Pugh A, Child Pugh B)): increased
- inhibition of VEGFRs [12]: highly potent
- inhibition of PDGFRs [13]: highly potent
- inhibition of FGFRs [14]: highly potent
- oral bioavailability [15]: orally bioavailable
- PDGFR-α activation (PDGFR-α): inhibit
- PDGFR-β activation (PDGFR-β): inhibit
- proliferation of human lung fibroblasts from patients with IPF (human lung fibroblasts): inhibited
- FGF-2-induced proliferation (human lung fibroblasts; [23]): inhibit
- VEGF-induced proliferation (human lung fibroblasts; [23]): inhibit
- proliferation of normal human lung fibroblasts (human lung fibroblasts; in vitro): inhibit
- migration of human lung fibroblasts from patients with IPF [16]: inhibited
- FGF-2-stimulated migration [16, 24]: attenuated
- PDGF-stimulated migration [16, 24]: attenuated
- TGF-β-induced fibroblast to myofibroblast transformation [17]: inhibited
- fibrosis in histological analyses (mouse models of IPF): reduced
- granuloma formation in histological analysis of lung tissue (mouse models of IPF): reduced
- inflammation in histological analysis of lung tissue (mouse models of IPF): reduced
- inflammatory cytokines (mouse models of IPF): reductions
- lymphocyte counts in the bronchoalveolar lavage fluid (mouse models of IPF): significant reductions
- neutrophil counts in the bronchoalveolar lavage fluid (mouse models of IPF): significant reductions
- total lung collagen (mouse models of IPF): significant reductions
- bleomycin-induced skin fibrosis [18]: attenuation

SMILES: Cc1ccc(=O)n(-c2ccccc2)c1 [pirfenidone, 5-methyl-1-phenyl-2(1H)-Pyridinone]
- primary endpoint of change from baseline FVC % predicted (IPF patients; ASCEND Phase III trial): met the primary endpoint
- primary FVC lung function endpoint (IPF patients; international Phase III CAPACITY program): efficacy on the primary FVC lung function endpoint in only one of two confirmatory trials
- decline of vital capacity (IPF patients; two local trials, Japan): reduced decline
